Experimental data published in paper PMC3532936 (Journal of biomolecular screening, 2011).
Several values for one entry are separate records, joined by “and”; a condition that tells them apart may be missing. Identical values can stand only once. Like-named read-outs stand apart in the source and are kept apart here.

How the values were obtained:
[1] = molecular target: CE protein (YF or DEN); details: read-out: Ki for the displacement of GTP–BODIPY; competition assay; cited from earlier work
[2] = molecular target: T1, YF CE (Yellow fever virus, UniProt P03314)
T1 sequence (P03314 2507-2771 limits assumed): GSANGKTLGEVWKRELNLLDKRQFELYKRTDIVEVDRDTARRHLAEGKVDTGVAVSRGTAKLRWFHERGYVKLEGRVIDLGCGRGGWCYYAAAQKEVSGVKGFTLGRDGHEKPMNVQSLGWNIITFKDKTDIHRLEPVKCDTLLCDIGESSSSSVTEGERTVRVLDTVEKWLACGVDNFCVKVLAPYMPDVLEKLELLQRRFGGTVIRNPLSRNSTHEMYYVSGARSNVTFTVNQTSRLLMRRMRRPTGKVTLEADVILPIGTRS

[3] = molecular target: T1, YF CE; type: binding, yellow fever virus (strain 17D)
[4] = molecular target: T2, DEN2 CE (Dengue virus type 2, UniProt P29990); type: binding, dengue virus 2 (strain 16681)
T2 sequence (P29990 2493-2755 limits assumed): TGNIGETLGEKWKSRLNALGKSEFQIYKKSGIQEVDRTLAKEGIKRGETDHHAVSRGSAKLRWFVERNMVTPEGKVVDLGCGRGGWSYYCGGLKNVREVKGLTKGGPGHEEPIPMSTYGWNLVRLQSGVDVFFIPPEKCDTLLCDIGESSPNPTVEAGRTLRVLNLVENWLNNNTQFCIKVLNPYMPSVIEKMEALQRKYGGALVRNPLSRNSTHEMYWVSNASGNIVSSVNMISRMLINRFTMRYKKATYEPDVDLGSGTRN

[5] = molecular target: T3, DEN CE (Dengue virus type 2, UniProt P29990); type: biochemical
T3 sequence (P29990 2493-2755 limits assumed): T2 sequence (P29990 2493-2755 limits assumed)

Nc1ncnc2c1ncn2[C@@H]1O[C@H](COP(=O)(O)OP(=O)(O)OP(=O)(O)O)[C@@H](O)[C@H]1O [adenosine triphosphate (ATP), adenosine triphosphate]
Ki [1]: 350 µM

COC(=O)[n+]1ccc(N2CCOCC2)cc1 [BAS01531218]
Ki ([2]; read-out: apparent Ki, FP, YF): 4.9 ± 1 µM
Ki ([2]; read-out: apparent Ki, TF, YF): 6.2 ± 1.4 µM
Percent Inhibition HTS [3]: 12%
Ki ([4]; read-out: apparent Ki, FP, DEN): 4.8 ± 1.5 µM
Ki ([4]; read-out: apparent Ki, TF, DEN): 2.6 ± 0.5 µM

Cc1ccc(C)n1C(Cc1c[nH]c2ccccc12)C(=O)O (stereo not drawn) [BAS 01211690]
inhibition of guanylation (in words) [5]: weaker inhibition of guanylation
IC50 ([5]; read-out: Guanylation IC50 DEN): 78.9 ± 37.8 µM
Ki ([2]; read-out: apparent Ki, FP, YF): 5.8 ± 0.5 µM
Ki ([2]; read-out: apparent Ki, TF, YF): 5.8 ± 1.7 µM
Percent Inhibition HTS [3]: 23%
Ki ([4]; read-out: apparent Ki, FP, DEN): 10.1 ± 1.3 µM
Ki ([4]; read-out: apparent Ki, TF, DEN): 9.1 ± 2.5 µM

Nc1nc2c(ncn2[C@@H]2O[C@H](COP(=O)(O)OP(=O)(O)OP(=O)(O)O)[C@@H](O)[C@H]2O)c(=O)[nH]1 [GTP, guanosine triphosphate, reference compound]
Ki [1]: 0.04 µM
average mP value of inhibition [3]: 42.4 ± 5.19 mP and 81.8 ± 6.09 mP
